Measurements reported in article PMC8688152, “Distinct classes of potassium channels fused to GPCRs as electrical signaling biosensors” (Cell Reports Methods, 2021).

How the values were obtained:
M2_T-00-37 = target: T1, M2_T-00-37 (UniProt P08172+P97438); assay: TEVC recording of M2_T-00-37 ICCR in Xenopus oocytes; type: cell-based, human (M2), mouse (TREK-1); conditions: 91 mM K+, Vm = −50 mV, mean ± SEM
T1 construct: M2_T-00-37 with zero deletion in the M2 receptor C terminus (full-length receptor); expressed in transfected cells; host or cells: Xenopus oocytes (mRNA injection)
Experimental: (§1) Microelectrodes were filled with […]. […] The membrane voltage was clamped to −50 mV.

M2_Kcv-09-03 = target: T2, M2_Kcv-09-03 (UniProt P08172+Q84568); assay: TEVC recording of M2_Kcv-09-03 ICCR expressed in Xenopus oocytes; type: cell-based, human (M2), Paramecium bursaria chlorella virus 1 (Kcv)
T2 construct: expressed in transfected cells; host or cells: Xenopus oocytes (mRNA injection)
T2 sequence (P08172+Q84568 with tags, fused parts or gaps): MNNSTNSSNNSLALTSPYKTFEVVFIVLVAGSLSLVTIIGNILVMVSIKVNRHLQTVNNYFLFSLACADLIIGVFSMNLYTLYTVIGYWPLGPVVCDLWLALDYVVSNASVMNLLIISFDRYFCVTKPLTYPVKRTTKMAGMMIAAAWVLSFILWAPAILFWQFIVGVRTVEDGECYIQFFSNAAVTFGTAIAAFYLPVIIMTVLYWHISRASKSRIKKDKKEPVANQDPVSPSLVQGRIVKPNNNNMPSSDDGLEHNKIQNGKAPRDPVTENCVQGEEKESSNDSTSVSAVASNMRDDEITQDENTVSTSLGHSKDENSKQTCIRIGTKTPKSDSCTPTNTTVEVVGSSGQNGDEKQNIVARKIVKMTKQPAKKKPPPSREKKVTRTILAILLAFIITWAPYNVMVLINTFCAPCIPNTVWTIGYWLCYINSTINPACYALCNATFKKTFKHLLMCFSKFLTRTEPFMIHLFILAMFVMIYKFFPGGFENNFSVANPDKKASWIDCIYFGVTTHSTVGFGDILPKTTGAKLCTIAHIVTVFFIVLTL
Experimental: as §1

M2_Kir6.2-09-25 = test system: M2_Kir6.2-09-25; set-up: method as in Moreau et al., 2017; conditions: Kir6.2 ICCRs; ref Moreau et al., 2017; read-out: IC50 observed with Kir6.2 ICCRs; cited from earlier work
M2[T4L]_T-00-43 = assay: TEVC recording of G protein-uncoupled M2[T4L]_T-00-43; type: cell-based, human (M2), mouse (TREK-1); conditions: 5 μM ACh
Experimental: as §1

M2_T(G293E)-00-40 = target: T3, M2_T(G293E)-00-40 (UniProt P08172+P97438, G308E); type: cell-based, human (M2), mouse (TREK-1); conditions: ACh 5 μM; TEVC, Xenopus oocytes; mean ± SEM
T3 construct: full-length (−00) or M2 deleted of its last nine residues (−09) in the indicated ICCRs; expressed in transfected cells; host or cells: Xenopus oocytes (mRNA injection)
Experimental: as §1

[1] = test system: M2_Kcv-09-xx constructs with larger deletions up to 12 residues; type: cell-based, human (M2), Paramecium bursaria chlorella virus 1 (Kcv); conditions: ACh 5 μM, TEVC
Experimental: (§2) Xenopus oocytes were prepared as previously reported ([Moreau et al., 2008]). Briefly, after surgical retrieval, the oocytes were defolliculated by type 1A collagenase. Each oocyte was injected with 50 nl of RNAse-free water containing the desired mRNAs. The mRNA quantities used per oocyte were: ICCR with Kcv, 2.7 ng (M2_Kcv and D2_Kcv) and 2.9 ng (OXTR_Kcv); ICCR with mTREK-1, 4.2 ng; ICCR with Kir6.2, 4.3 ng; M2, 2.3 ng; D2, 2.2 ng; Kir3.4T, 2.2 ng; Kcv 0.46 ng and mTREK-1, 2.1 ng. Microinjected oocytes were incubated 2 to 3 days at 19°C in modified-Barth's solution (in mM: 1 KCl, 0.82 MgSO4, 88 NaCl, 2.4 NaHCO3, 0.41 CaCl2, 16 HEPES, pH 7.4) supplemented with 100 U.ml^−1 of penicillin and streptomycin and 0.1 mg.mL^−1 of gentamycin. Animal handling and experiments fully conformed to European regulations and were approved by the French Ministry of Higher Education and Research (APAFIS#4420-2016030813053199 v4 to CM). […]
(§3) Two-electrode voltage-clamp (TEVC) recordings were performed automatically with HiClamp robots (MultiChannel Systems). […] Ligand effects were measured in high potassium concentration buffer with the membrane potential clamped to −50 mV and at 19°C.
(§4) Change of potassium current induced by ligand was calculated either with the barium-sensitive currents as a 0-reference for Kcv-based ICCRs or with the currents in ND96 for mTREK-1 ICCRs. […]

M2_T-00-43 S300A S333A = target: T4, M2_T-00-43 S300A S333A (UniProt P08172+P97438, S315A/S348A); assay: TEVC recording of phosphorylation-deficient M2_T-00-43 S300A S333A; type: cell-based, human (M2), mouse (TREK-1); conditions: ACh 5 μM
T4 construct: full-length (−00) or M2 deleted of its last nine residues (−09) in the indicated ICCRs; expressed in transfected cells; host or cells: Xenopus oocytes (mRNA injection); gene synthesized by GeneCust
Experimental: as §1

M2_T-00-40 = target: T5, M2_T-00-40 (UniProt P08172+P97438); assay: TEVC recording of M2_T-00-40 ICCR in Xenopus oocytes; type: cell-based, human (M2), mouse (TREK-1); conditions: 91 mM K+, Vm = −50 mV, mean ± SEM
T5 construct: full-length (−00) or M2 deleted of its last nine residues (−09) in the indicated ICCRs; expressed in transfected cells; host or cells: Xenopus oocytes (mRNA injection)
Experimental: as §1

[2] = test system: I252T mutant of M2_T-00-40; type: cell-based, human (M2), mouse (TREK-1); conditions: ACh 5 μM; I252T versus WT M2_T-00-40
Experimental: as §2, §3, §4

[3] = target: T6, I252T mutant of M2_T-00-40 (UniProt P08172+P97438, I267T); type: cell-based, human (M2), mouse (TREK-1)
T6 construct: full-length (−00) or M2 deleted of its last nine residues (−09) in the indicated ICCRs; expressed in transfected cells; host or cells: Xenopus oocytes (mRNA injection)
Experimental: as §2, §3, §4

M2_T-00-46 = target: T7, M2_T-00-46 (UniProt P08172+P97438); assay: TEVC recording of M2_T-00-46 ICCR in Xenopus oocytes; type: cell-based, human (M2), mouse (TREK-1); conditions: 91 mM K+, Vm = −50 mV, mean ± SEM
T7 construct: full-length (−00) or M2 deleted of its last nine residues (−09) in the indicated ICCRs; expressed in transfected cells; host or cells: Xenopus oocytes (mRNA injection); gene synthesized by GeneCust
Experimental: as §1

In the case of `CC(=O)OCC[N+](C)(C)C` [ACh, acetylcholine], the “activation: % of current change induced by ACh 5 μM on M2_T-00-37” value (M2_T-00-37) is reported as 3.9% ± 0.9%, the “Hill coefficient (nH) on M2_Kcv-09-03” value (M2_Kcv-09-03; concentration-effect curve, TEVC) is reported as 0.37 and the inhibition at 5 µM (M2_Kcv-09-03; read-out: inhibition: % of current change induced by ACh 5 μM on M2_Kcv-09-03, 5 μM, Xenopus oocytes, 91 mM K+, Vm = −50 mV, printed as inhibition, mean ± SEM) is reported as 53.4%. For the same compound, the IC50 (M2_Kir6.2-09-25) was 1250 nM, the “activation of G protein-uncoupled M2[T4L]_T-00-43 by ACh” value (M2[T4L]_T-00-43) was “still activated by ACh with the same amplitude as WT” and the “activation induced by ACh on the hyperactive G293E mutant of M2_T-00-40” value (M2_T(G293E)-00-40) was 32.5% ± 3.6%. The “response of M2_Kcv-09 constructs with larger deletions up to 12 residues to ACh” value [1] was “did not yield significant responses”, the “activation of the S300A S333A double mutant of M2_T-00-43 by ACh” value (M2_T-00-43 S300A S333A) was “preserved activation” and the “activation: % of current change induced by ACh 5 μM on M2_T-00-40” value (M2_T-00-40) was 20.2% ± 3.5%. The “increase of ACh-induced activation of the I252T mutant compared with the WT counterpart” value [2] was “more than 4 fold”, the “activation induced by ACh on the I252T mutant of M2_T-00-40” value [3] was 84.7% ± 11.2% and the “activation: % of current change induced by ACh 5 μM on M2_T-00-46” value (M2_T-00-46) was 35.2% ± 1.6%.
